Reference: ChEMBL document CHEMBL1201862, “PubChem BioAssay data set” (2004)
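Compound exposure: 48 hours, 5 concentrations, 96-well plates. Abbreviation: GI50, concentration required for 50% inhibition of growth.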 Active and inactive are the calls of the source. Cut-off read from the data, not from the text of the source: active = GI50 up to about 1.1 µM and inactive = higher.

What was measured:
Experiment in all cases: inhibition of tumour cell growth, NCI panel, 48 h
NCI-H460 = system: NCI-H460
SK-OV-3 = system: SK-OV-3
TK-10 = system: TK-10
NCI-H23 = system: NCI-H23
COLO 205 = system: COLO 205
HCC 2998 = system: HCC 2998
MDA-MB-435 = system: MDA-MB-435
UACC-62 = system: UACC-62
UACC-257 = system: UACC-257
MDA-N = system: MDA-N
CCRF-CEM = system: CCRF-CEM
T47D = system: T47D
SK-MEL-28 = system: SK-MEL-28
OVCAR-3 = system: OVCAR-3
ACHN = system: ACHN
KM12 = system: KM12
SN12C = system: SN12C
A549 = system: A549
SK-MEL-2 = system: SK-MEL-2

Measured: GI50

C/C(=N\Nc1ccc([N+](=O)[O-])cc1[N+](=O)[O-])c1sc(-n2nc(-c3ccccc3)cc2-c2ccccc2)nc1C
inactive: NCI-H460 30.8 µM | SK-OV-3 24.5 µM | TK-10 27.9 µM | NCI-H23 32.9 µM | COLO 205 24.8 µM | HCC 2998 32.9 µM | MDA-MB-435 33 µM | UACC-62 53.6 µM | UACC-257 20.8 µM | MDA-N 46.8 µM | CCRF-CEM 19.5 µM | T47D 13.8 µM | SK-MEL-28 90.2 µM | OVCAR-3 39.4 µM | ACHN 16.6 µM | KM12 11.3 µM | SN12C 50.1 µM

CC1(C)C2CC(O)C1(C)CC2=O (configuration not stated)
inactive: NCI-H460 > 100 µM | SK-OV-3 > 100 µM | TK-10 > 100 µM | NCI-H23 > 100 µM | COLO 205 > 100 µM | HCC 2998 > 100 µM | MDA-MB-435 > 100 µM | UACC-62 > 100 µM | A549 > 100 µM | UACC-257 > 100 µM | MDA-N > 100 µM | CCRF-CEM > 100 µM | T47D > 100 µM | SK-MEL-28 3.21 µM | OVCAR-3 > 100 µM | ACHN > 100 µM | KM12 > 100 µM | SN12C > 100 µM

CCOC(=O)C1C(=O)CC(C)(O)C(C(=O)OCC)C1c1ccc(O)c(OC)c1 (configuration not stated)
inactive: NCI-H460 > 100 µM | TK-10 > 100 µM | NCI-H23 > 100 µM | COLO 205 > 100 µM | HCC 2998 > 100 µM | MDA-MB-435 > 100 µM | UACC-62 > 100 µM | A549 > 100 µM | UACC-257 > 100 µM | MDA-N > 100 µM | CCRF-CEM > 100 µM | T47D > 100 µM | SK-MEL-28 > 100 µM | OVCAR-3 > 100 µM | ACHN > 100 µM | KM12 > 100 µM | SN12C > 100 µM | SK-MEL-2 > 100 µM

CN(C)c1ccc2oc(=O)c3ccccc3c2c1
inactive: NCI-H460 > 100 µM | TK-10 39.7 µM | NCI-H23 22.9 µM | COLO 205 > 100 µM | HCC 2998 > 100 µM | MDA-MB-435 > 100 µM | UACC-62 99.8 µM | A549 > 100 µM | UACC-257 > 100 µM | MDA-N > 100 µM | CCRF-CEM > 100 µM | T47D > 100 µM | SK-MEL-28 > 100 µM | OVCAR-3 > 100 µM | ACHN 24.3 µM | SN12C > 100 µM | SK-MEL-2 33.7 µM

OC(COC(c1ccccc1)(c1ccccc1)c1ccccc1)C(O)CC1SCCS1 (configuration not stated)
inactive: SK-OV-3 19 µM | TK-10 21 µM | NCI-H23 17.9 µM | COLO 205 14.7 µM | MDA-MB-435 26.2 µM | UACC-62 17.1 µM | UACC-257 27 µM | MDA-N 19 µM | CCRF-CEM 21.3 µM | T47D 14.1 µM | SK-MEL-28 21.5 µM | OVCAR-3 22.2 µM | ACHN 18.6 µM | KM12 13 µM | SN12C 17.7 µM | SK-MEL-2 11.5 µM

COc1cc(/C=N\N(C)C)cc(/C=N/N(C)C)c1O
inactive: NCI-H460 30.1 µM | SK-OV-3 15.5 µM | TK-10 55.7 µM | NCI-H23 > 100 µM | COLO 205 17.1 µM | MDA-MB-435 25.9 µM | UACC-62 28.1 µM | A549 > 100 µM | UACC-257 28.6 µM | MDA-N 25.9 µM | CCRF-CEM 17.3 µM | T47D 1.98 µM | SK-MEL-28 19.3 µM | OVCAR-3 17.3 µM | ACHN 21.3 µM | KM12 > 100 µM | SN12C 14.4 µM | SK-MEL-2 7.89 µM

CCOC(=O)C1=C(N)N2C(=N[C@H]3CCCC[C@@H]32)N=C1
inactive: NCI-H460 > 100 µM | SK-OV-3 > 100 µM | NCI-H23 > 100 µM | COLO 205 > 100 µM | HCC 2998 > 100 µM | MDA-MB-435 > 100 µM | UACC-62 > 100 µM | A549 > 100 µM | UACC-257 > 100 µM | MDA-N > 100 µM | T47D > 100 µM | SK-MEL-28 > 100 µM | OVCAR-3 > 100 µM | ACHN > 100 µM | KM12 > 100 µM | SN12C > 100 µM | SK-MEL-2 > 100 µM

O=[N+]([O-])c1ccc([I+]c2ccccc2)cc1
inactive: NCI-H460 5.52 µM | SK-OV-3 2.07 µM | TK-10 8.91 µM | NCI-H23 2.33 µM | COLO 205 3.11 µM | HCC 2998 7.28 µM | MDA-MB-435 8.2 µM | UACC-62 2.96 µM | A549 6.64 µM | UACC-257 4.29 µM | MDA-N 6.56 µM | CCRF-CEM 2.49 µM | T47D 6.52 µM | SK-MEL-28 3.6 µM | OVCAR-3 3.13 µM | ACHN 6.43 µM | KM12 5.04 µM | SN12C 1.61 µM

CCOC(=O)c1cc2c([nH]1)C(=O)CC1=C2CCN1Cc1ccccc1
inactive: NCI-H460 18.4 µM | SK-OV-3 19.4 µM | TK-10 13.9 µM | NCI-H23 16.1 µM | COLO 205 16.8 µM | MDA-MB-435 13.2 µM | UACC-62 14.8 µM | A549 21.4 µM | UACC-257 17.4 µM | MDA-N 13.5 µM | CCRF-CEM 4.43 µM | T47D 2.45 µM | SK-MEL-28 17.2 µM | ACHN 12.9 µM | KM12 17.6 µM | SN12C 18.2 µM | SK-MEL-2 20.5 µM

O=C1NC(=S)N/C1=C\c1ccc(Sc2ccccc2C(=O)O)s1
inactive: NCI-H460 > 100 µM | TK-10 > 100 µM | NCI-H23 > 100 µM | COLO 205 > 100 µM | HCC 2998 > 100 µM | MDA-MB-435 > 100 µM | UACC-62 85.3 µM | UACC-257 > 100 µM | MDA-N > 100 µM | T47D > 100 µM | SK-MEL-28 > 100 µM | OVCAR-3 > 100 µM | ACHN > 100 µM | KM12 > 100 µM | SN12C > 100 µM | SK-MEL-2 > 100 µM

Oc1nc(S)nc(SCc2c(Cl)c(Cl)c(Cl)c(Cl)c2Cl)n1
inactive: NCI-H460 58.2 µM | SK-OV-3 > 96.4 µM | TK-10 > 80.2 µM | NCI-H23 55.7 µM | COLO 205 18.2 µM | MDA-MB-435 36.9 µM | UACC-62 > 92.7 µM | A549 > 96.4 µM | UACC-257 > 88.3 µM | MDA-N 47.4 µM | CCRF-CEM 15.8 µM | T47D 27.9 µM | SK-MEL-28 31.1 µM | OVCAR-3 15.3 µM | ACHN 77.1 µM | KM12 89.9 µM | SN12C 49.5 µM | SK-MEL-2 52.5 µM

CCOC(=O)/C(=C\c1c(C)[nH]c2ccccc12)P(=O)(OCC)OCC
inactive: NCI-H460 > 100 µM | SK-OV-3 > 100 µM | TK-10 > 100 µM | NCI-H23 > 100 µM | COLO 205 > 100 µM | HCC 2998 > 100 µM | MDA-MB-435 > 100 µM | UACC-62 > 100 µM | A549 > 100 µM | UACC-257 > 100 µM | MDA-N > 100 µM | T47D > 100 µM | SK-MEL-28 > 100 µM | OVCAR-3 > 100 µM | ACHN > 100 µM | KM12 > 100 µM | SN12C > 100 µM
